# Experimental data taken from patent US9499523B2, “Phosphatidylinositol 3-kinase inhibitors” (Gilead Sciences, Inc., priority 2014, dated 2016).
# How the values were obtained:
# PI3Kβ = PI3Kβ (Homo sapiens (Human), UniProt P42338); assay: TR-FRET enzymatic assay of PI3K isoforms, PI3Kβ; type: biochemical; settings: for IC50: TR-FRET, 2×Km ATP, 30 minutes at 25° C.; for PI3Kγ/PI3Kβ ratio: ratio of IC50 values, selectivity for PI3Kβ over PI3Kγ
# Description: (§1) The compounds of formula (I) were characterized for their enzymatic activity against the PI3K isoforms. The activities were measured using a time-resolved fluorescence resonance energy transfer (TR-FRET) assay. TR-FRET monitored the formation of 3,4,5-inositol triphosphate molecule that competed with fluorescently labeled PIP3 for binding to the GRP-1 pleckstrin homology domain protein.
# (§2) Class I PI3K isoforms were expressed and purified as heterodimeric recombinant proteins. All assay reagents and buffers for the TR-FRET assay were purchased from Millipore. […] The reactions were terminated with a final concentration of 10 mM EDTA, 10 nM labeled-PIP3, and 35 nM Europium labeled GRP-1 detector protein before reading TR-FRET on an Envision plate reader (Ex: 340 nm; Em: 615/665 nm; 100 μs delay and 500 μs read window).
# (§3) The results were normalized based on positive (1 μM wortmanin) and negative (DMSO) controls, and the IC50 values for PI3K α, β, δ and γ were calculated from the fit of the dose-response curves to a four-parameter equation.
# PI3Kδ = PI3Kδ (Homo sapiens (Human), UniProt O00329); assay: TR-FRET enzymatic assay of PI3K isoforms, PI3Kδ; settings: read-out: PI3Kδ IC50, 2×Km ATP, 30 minutes at 25° C.
# PI3Kδ, sequence (O00329 whole entry, canonical isoform): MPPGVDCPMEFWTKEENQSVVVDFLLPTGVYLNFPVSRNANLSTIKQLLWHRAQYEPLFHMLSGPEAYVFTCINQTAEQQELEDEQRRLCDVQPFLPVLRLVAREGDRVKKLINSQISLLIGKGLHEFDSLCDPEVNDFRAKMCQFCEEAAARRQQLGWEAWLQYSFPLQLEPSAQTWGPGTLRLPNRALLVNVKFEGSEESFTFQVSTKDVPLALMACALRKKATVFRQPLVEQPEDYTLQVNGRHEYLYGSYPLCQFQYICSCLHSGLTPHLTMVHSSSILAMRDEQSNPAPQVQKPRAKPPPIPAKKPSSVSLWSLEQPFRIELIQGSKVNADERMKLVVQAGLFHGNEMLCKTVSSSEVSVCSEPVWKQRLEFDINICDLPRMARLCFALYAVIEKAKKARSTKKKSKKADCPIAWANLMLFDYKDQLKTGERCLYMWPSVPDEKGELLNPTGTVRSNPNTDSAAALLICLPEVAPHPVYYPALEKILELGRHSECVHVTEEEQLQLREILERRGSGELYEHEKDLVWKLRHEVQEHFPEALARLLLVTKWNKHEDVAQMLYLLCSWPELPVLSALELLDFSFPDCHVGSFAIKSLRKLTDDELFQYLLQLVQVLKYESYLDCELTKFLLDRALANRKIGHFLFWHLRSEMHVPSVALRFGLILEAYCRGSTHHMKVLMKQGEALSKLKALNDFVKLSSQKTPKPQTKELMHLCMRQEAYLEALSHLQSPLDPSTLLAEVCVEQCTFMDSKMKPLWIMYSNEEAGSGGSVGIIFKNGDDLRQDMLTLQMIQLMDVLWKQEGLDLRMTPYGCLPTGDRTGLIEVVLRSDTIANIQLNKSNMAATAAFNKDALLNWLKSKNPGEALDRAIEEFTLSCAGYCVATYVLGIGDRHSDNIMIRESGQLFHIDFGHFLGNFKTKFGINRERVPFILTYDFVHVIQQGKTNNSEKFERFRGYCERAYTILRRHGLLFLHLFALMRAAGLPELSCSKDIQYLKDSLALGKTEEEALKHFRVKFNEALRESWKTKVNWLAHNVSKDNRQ
# PI3Kδ, sequence (P27986 whole entry partner, canonical isoform): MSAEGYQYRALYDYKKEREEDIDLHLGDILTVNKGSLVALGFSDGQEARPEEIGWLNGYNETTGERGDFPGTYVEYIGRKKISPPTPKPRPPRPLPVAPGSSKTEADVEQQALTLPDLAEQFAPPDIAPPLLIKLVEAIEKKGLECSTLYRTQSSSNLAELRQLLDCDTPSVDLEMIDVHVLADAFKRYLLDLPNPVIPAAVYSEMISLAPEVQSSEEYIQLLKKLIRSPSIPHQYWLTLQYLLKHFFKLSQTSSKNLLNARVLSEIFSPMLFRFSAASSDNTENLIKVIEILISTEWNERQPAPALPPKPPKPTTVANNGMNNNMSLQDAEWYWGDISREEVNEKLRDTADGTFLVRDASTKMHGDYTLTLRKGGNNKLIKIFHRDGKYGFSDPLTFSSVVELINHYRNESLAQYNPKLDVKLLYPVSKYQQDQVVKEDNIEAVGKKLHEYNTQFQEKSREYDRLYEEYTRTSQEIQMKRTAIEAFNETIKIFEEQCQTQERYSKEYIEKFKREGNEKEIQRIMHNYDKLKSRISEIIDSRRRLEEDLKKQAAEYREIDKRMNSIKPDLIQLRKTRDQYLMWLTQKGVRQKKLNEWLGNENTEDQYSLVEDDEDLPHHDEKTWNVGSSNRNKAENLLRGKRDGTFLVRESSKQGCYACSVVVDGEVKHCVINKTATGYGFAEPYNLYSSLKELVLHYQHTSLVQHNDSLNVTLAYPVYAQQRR
# Description: as §1, §2, §3
# PI3Kγ = PI3Kγ (Homo sapiens (Human), UniProt P48736); assay: TR-FRET enzymatic assay of PI3K isoforms, PI3Kγ; type: biochemical; settings: 2×Km ATP, PI3Kγ at 2 nM, 30 minutes at 25° C.
# PI3Kγ, sequence (P48736 whole entry, canonical isoform): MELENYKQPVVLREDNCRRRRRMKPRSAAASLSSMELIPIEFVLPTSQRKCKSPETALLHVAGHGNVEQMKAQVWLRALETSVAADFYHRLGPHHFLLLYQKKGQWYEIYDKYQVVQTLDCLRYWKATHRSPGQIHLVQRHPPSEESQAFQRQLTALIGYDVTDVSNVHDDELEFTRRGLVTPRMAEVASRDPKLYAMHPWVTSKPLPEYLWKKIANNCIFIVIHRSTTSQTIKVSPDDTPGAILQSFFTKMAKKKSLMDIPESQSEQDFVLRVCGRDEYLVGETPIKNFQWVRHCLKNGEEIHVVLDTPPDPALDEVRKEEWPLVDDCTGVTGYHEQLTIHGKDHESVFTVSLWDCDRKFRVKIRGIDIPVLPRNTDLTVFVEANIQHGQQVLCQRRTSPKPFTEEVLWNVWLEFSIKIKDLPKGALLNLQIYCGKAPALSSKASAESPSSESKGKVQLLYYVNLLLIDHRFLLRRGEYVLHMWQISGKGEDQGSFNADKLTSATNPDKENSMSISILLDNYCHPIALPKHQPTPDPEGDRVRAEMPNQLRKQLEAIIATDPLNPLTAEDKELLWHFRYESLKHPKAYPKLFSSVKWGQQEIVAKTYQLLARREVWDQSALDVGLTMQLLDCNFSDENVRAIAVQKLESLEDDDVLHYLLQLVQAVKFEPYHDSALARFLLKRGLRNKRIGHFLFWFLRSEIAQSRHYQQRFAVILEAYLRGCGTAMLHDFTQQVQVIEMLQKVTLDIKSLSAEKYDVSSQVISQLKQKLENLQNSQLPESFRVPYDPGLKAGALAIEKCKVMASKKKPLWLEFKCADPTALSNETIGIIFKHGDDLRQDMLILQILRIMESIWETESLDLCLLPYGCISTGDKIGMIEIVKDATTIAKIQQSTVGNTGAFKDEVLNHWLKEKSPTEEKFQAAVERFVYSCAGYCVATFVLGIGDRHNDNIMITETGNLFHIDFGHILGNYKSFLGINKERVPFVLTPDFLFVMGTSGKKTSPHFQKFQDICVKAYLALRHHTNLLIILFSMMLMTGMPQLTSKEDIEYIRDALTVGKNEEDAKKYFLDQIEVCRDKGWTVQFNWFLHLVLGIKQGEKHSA
# Description: as §1, §2, §3
# PI3Kβ, sequence (P42338 whole entry, canonical isoform): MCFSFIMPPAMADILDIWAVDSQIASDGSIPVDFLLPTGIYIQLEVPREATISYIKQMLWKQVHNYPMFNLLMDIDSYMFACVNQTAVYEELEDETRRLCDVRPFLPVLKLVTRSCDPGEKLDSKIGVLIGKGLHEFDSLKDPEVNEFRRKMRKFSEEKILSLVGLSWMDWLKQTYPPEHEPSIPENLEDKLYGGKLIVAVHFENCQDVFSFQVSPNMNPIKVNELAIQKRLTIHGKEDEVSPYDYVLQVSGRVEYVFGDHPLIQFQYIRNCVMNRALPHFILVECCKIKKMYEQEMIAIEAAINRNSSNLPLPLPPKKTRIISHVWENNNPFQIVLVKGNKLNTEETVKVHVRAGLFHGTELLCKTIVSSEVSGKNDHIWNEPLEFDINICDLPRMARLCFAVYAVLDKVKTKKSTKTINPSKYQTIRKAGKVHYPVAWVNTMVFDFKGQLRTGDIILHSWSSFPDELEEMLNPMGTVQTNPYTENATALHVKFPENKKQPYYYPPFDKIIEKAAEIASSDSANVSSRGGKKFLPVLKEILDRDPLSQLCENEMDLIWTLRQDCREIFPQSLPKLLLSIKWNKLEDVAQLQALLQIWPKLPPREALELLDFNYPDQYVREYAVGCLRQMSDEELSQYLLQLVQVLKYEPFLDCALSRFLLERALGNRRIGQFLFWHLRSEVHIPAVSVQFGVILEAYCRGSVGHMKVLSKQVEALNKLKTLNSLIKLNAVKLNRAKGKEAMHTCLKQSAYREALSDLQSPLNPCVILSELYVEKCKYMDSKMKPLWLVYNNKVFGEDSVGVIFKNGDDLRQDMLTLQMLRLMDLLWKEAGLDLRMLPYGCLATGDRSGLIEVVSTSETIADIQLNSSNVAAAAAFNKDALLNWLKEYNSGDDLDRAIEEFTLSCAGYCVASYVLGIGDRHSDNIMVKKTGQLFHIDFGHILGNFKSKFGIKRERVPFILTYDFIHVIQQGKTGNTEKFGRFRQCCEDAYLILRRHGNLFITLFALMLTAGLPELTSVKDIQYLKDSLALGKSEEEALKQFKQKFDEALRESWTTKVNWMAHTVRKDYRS
# PI3Kβ, sequence (P27986 whole entry partner, canonical isoform): as the sequence (P27986 whole entry partner, canonical isoform) above
IC50 (PI3Kβ),IC50 (PI3Kδ),IC50 (PI3Kγ),PI3Kγ/PI3Kβ ratio (PI3Kβ),Compound
4.2 nM,2.7 nM,900 nM,,N#Cc1c(N)nc(N)nc1N[C@H](c1nc2cccc(Cl)c2c(=O)n1-c1cnc(N)cn1)C1CC1 [Compound 9]
190 nM,24 nM,> 10000 nM,,"Nc1cnc(-n2c([C@@H](Nc3nc(N)nc(N)c3Cl)C3CC3)nc3cccc(Cl)c3c2=O)cn1 [Compound 8, (S)-3-(5-aminopyrazin-2-yl)-5-chloro-2-(cyclopropyl((2,6-diamino-5-chloropyrimidin-4-yl)amino)methyl)quinazolin-4(3H)-one]"
,,,less than 1,"C[C@H](Nc1nc(N)nc(N)c1C#N)c1nc2cccc(Cl)c2c(=O)n1-c1ccccc1 [(S)-2,4-diamino-6-((1-(5-chloro-4-oxo-3-phenyl-3,4-dihydroquinazolin-2-yl)ethyl)amino)pyrimidine-5-carbonitrile, reference compound]"
,,,0.6,"C[C@H](Nc1nc(N)nc(N)c1C#N)c1nc2cccc(Cl)c2c(=O)n1-c1cccnc1 [Compound X, (S)-2,4-diamino-6-((1-(5-chloro-4-oxo-3-(pyridin-3-yl)-3,4-dihydroquinazolin-2-yl)ethyl)amino)pyrimidine-5-carbonitrile, reference compound]"
54 nM,,> 10000 nM,,"C[C@H](Nc1nc(N)nc(N)c1Cl)c1nc2c(F)ccc(Cl)c2c(=O)n1-c1cnc(N)cn1 [Compound 1, (S)-3-(5-aminopyrazin-2-yl)-5-chlor-2-(1-((2,6-diamino-5-chloropyrimidin-4-yl)amino)ethyl)-8-fluoroquinazolin-4(3H)-one]"
200 nM,340 nM,> 10000 nM,,"C[C@H](Nc1nc(N)nc(C(F)F)c1C#N)c1nc2c(Cl)cc(F)cc2c(=O)n1-c1cnc(N)cn1 [Compound 14, (S)-2-amino-4-((1-(3-(5-aminopyrazin-2-yl)-8-chloro-6-fluoro-4-oxo-3,4-dihydroquinazolin-2-yl)ethyl)amino)-6-(difluoromethyl)pyrimidine-5-carbonitrile]"
2 nM,2 nM,280 nM,,"C[C@H](Nc1nc(N)nc(N)c1C#N)c1nc2cccc(Cl)c2c(=O)n1-c1cnc(N)cn1 [Compound 6, (S)-2,4-diamino-6-((1-(3-(5-aminopyrazin-2-yl)-5-chloro-4-oxo-3,4-dihydroquinazolin-2-yl)ethyl)amino)pyrimidine-5-carbonitrile]"
170 nM,31 nM,> 10000 nM,,"C[C@H](Nc1nc(N)nc(N)c1Cl)c1nc2c(Cl)ccc(Cl)c2c(=O)n1-c1cnc(N)cn1 [Compound 13, (S)-3-(5-aminopyrazin-2-yl)-5,8-dichloro-2-(1-((2,6-diamino-5-chloropyrimidin-4-yl)amino)ethyl)quinazolin-4(3H)-one]"
5800 nM,2300 nM,> 10000 nM,,"C[C@H](Nc1ncnc2occc12)c1nc2c(F)ccc(Cl)c2c(=O)n1-c1cnc(N)cn1 [Compound 5, (S)-3-(5-amninopyrazin-2-yl)-5-chloro-8-fluoro-2-(1-(furo[2,3-d]pyrimidin-4-ylamino)ethyl)quinazolin-4(3H)-one]"
74 nM,11 nM,> 10000 nM,,"C[C@H](Nc1ncnc(N)c1C#N)c1nc2c(F)ccc(Cl)c2c(=O)n1-c1cnc(N)cn1 [Compound 3, (S)-4-amino-6-((1-(3-(5-aminopyrazin-2-yl)-5-chloro-8-fluoro-4-oxo-3,4-dihydroquinazolin-2-yl)ethyl)amino)pyrimidine-5-carbonitrile]"
1200 nM,97 nM,> 10000 nM,,"Nc1cnc(-n2c([C@@H](Nc3nc(N)nc(N)c3Cl)C3CC3)nc3c(Cl)ccc(Cl)c3c2=O)cn1 [Compound 12, (S)-3-(5-aminopyrazin-2-yl)-5,8-dichloro-2-(cyclopropyl((2,6-diamino-5-chloropyrimidin-4-yl)amino)methyl)quinazolin-4(3H)-one]"
3.6 nM,2.4 nM,3100 nM,,"N#Cc1c(N)nc(N)nc1N[C@H](c1nc2c(Cl)ccc(Cl)c2c(=O)n1-c1cnc(N)cn1)C1CC1 [Compound 10, (S)-2,4-diamino-6-(((3-(5-aminopyrazin-2-yl)-5,8-dichloro-4-oxo-3,4-dihydroquinazolin-2-yl)(cyclopropyl)methyl)amino)pyrimidine-5-carbonitrile]"
14 nM,32 nM,4900 nM,,C[C@H](Nc1nc(N)nc(N)c1C#N)c1nc2c(Cl)cc(F)cc2c(=O)n1-c1cnc(N)cn1 [Compound 17]
720 nM,,> 10000 nM,,"Nc1cnc(-n2c([C@@H](Nc3ncnc(N)c3Cl)C3CC3)nc3cccc(Cl)c3c2=O)cn1 [Compound 21, (S)-2-(((6-Amino-5-chloropyrimidin-4-yl)amino)(cyclopropyl)methyl)-3-(5-aminopyrazin-2-yl)-5-chloroquinazolin-4(3H)-one]"
47 nM,24 nM,4000 nM,,"C[C@H](Nc1nc(N)nc(N)c1Cl)c1nc2cccc(Cl)c2c(=O)n1-c1cnc(N)cn1 [Compound 7, (S)-3-(5-aminopyrazin-2-yl)-5-chloro-2-(1-((2,6-diamino-5-chloropyrimidin-4-yl)amino)ethyl)quinazolin-4(3H)-one]"
4.4 nM,3.5 nM,630 nM,,"C[C@H](Nc1nc(N)nc(N)c1C#N)c1nc2c(F)ccc(Cl)c2c(=O)n1-c1cnc(N)cn1 [Compound 2, (S)-2,4-diamino-6-((1-(3-(5-aminopyrazin-2-yl)-5-chloro-8-fluoro-4-oxo-3,4-dihydroquinazolin-2-yl)ethyl)amino)pyrimidine-5-carbonitrile]"
1.8 nM,1.9 nM,1500 nM,,"C[C@H](Nc1nc(N)nc(N)c1C#N)c1nc2c(Cl)ccc(Cl)c2c(=O)n1-c1cnc(N)cn1 [Compound 11, (S)-2,4-diamino-6-((1-(3-(5-aminopyrazin-2-yl)-5,8-dichloro-4-oxo-3,4-dihydroquinazolin-2-yl)ethyl)amino)pyrimidine-5-carbonitrile]"
> 10000 nM,2700 nM,> 10000 nM,,"C[C@H](Nc1ncnc2[nH]nnc12)c1nc2c(F)cccc2c(=O)n1-c1cnc(N)cn1 [Compound 4, (S)-2-(1-((3H-[1,2,3]triazolo[4,5-d]pyrimidin-7-yl)amino)ethyl)-3-(5-aminopyrazin-2-yl)-8-fluoroquinazolin-4(3H)-one]"
9.8 nM,53 nM,1500 nM,,"C[C@H](Nc1nc(N)nc(N)c1C#N)c1nc2c(F)cc(F)cc2c(=O)n1-c1cnc(N)cn1 [Compound 15, (S)-2,4-Diamino-6-((1-(3-(5-aminopyrazin-2-yl)-6,8-difluoro-4-oxo-3,4-dihydroquinazolin-2-yl)ethyl)amino)pyrimidine-5-carbonitrile]"
